Data taken from ChEMBL document CHEMBL1146330, “Acyclic, orally bioavailable ketone-based cathepsin K inhibitors” (Bioorg Med Chem Lett, 2007).
Values after ≈ are worked out from the molar mass of the structure shown.

Tests used:
[1] = target: T1, Cathepsin K (Homo sapiens, UniProt P43235); assay: Inhibition of human recombinant cathepsin K
T1 sequence (P43235 whole entry): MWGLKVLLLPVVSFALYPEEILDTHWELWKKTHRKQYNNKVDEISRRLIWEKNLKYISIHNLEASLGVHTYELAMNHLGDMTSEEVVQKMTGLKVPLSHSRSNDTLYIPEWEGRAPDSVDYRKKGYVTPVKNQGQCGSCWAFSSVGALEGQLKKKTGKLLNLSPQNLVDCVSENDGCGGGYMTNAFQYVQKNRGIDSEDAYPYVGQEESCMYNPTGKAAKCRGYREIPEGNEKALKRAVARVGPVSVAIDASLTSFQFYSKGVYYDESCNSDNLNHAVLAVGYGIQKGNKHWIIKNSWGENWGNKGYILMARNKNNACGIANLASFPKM

[2] = target: Cathepsin B (Homo sapiens, UniProt P07858); assay: Inhibition of human recombinant cathepsin B
[3] = Inhibition of human recombinant cathepsin L
[4] = target: Cathepsin S (Homo sapiens, UniProt P25774); assay: Inhibition of human recombinant cathepsin S
[5] = Apparent permeability across MDCK cells; assay type: ADME, cell-based, Canis lupus familiaris; conditions: dog
[6] = Solubility in fasted state simulated intestinal fluid at pH 6.8; assay type: physicochemical
[7] = Terminal elimination half life in iv dosed Han Wistar rat; assay type: ADME, organism-based; conditions: in vivo
[8] = Total clearance in Han Wistar rat; assay type: ADME, organism-based; conditions: in vivo
[9] = Volume of distribution at steady state in Han Wistar rat; assay type: ADME, organism-based; conditions: in vivo, read-out: Vdss
[10] = Oral bioavailability in Han Wistar rat; assay type: ADME, organism-based; conditions: in vivo
[11] = organism: Homo sapiens; assay: Selectivity for human recombinant cathepsin K over human recombinant cathepsin L

Sequence of Cathepsin S (P25774 whole entry): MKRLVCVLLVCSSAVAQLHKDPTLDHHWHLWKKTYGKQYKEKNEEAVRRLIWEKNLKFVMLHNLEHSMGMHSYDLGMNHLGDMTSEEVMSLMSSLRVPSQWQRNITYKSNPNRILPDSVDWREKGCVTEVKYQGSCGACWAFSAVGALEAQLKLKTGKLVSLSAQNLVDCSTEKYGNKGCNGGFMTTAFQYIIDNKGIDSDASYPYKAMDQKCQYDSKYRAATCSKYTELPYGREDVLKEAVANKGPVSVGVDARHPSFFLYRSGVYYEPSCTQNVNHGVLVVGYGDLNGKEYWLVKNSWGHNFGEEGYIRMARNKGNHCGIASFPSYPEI

| IC50 [1] [nM] | IC50 [2] [nM] | IC50 [3] [nM] | IC50 [4] [nM] | Papp [5] [×10⁻⁶ cm/s] | solubility [6] [µg/mL] | half-life [7] [min] | clearance [8] [mL/min/kg] | Vd [9] [L/kg] | bioavailability [10] [%] | Ratio IC50 [11] | SMILES |
| --- | --- | --- | --- | --- | --- | --- | --- | --- | --- | --- | --- |
| 5.5 | 79 | 100 | 15 | – | – | – | – | – | – | – | CCCC[C@H](NC(=O)O[C@H](Cn1ccc(-c2cccnc2)n1)C(C)(C)C)C(=O)CNS(=O)(=O)c1ccccn1 |
| 65 | – | – | – | – | – | – | – | – | – | – | CC(C)(C)[C@@H](Cn1ccc(-c2ccc(C(F)(F)F)cc2)n1)OC(=O)NCC(=O)CNS(=O)(=O)c1ccccn1 |
| 3.2 | 40 | 16 | 10 | 15 | 28 (≈ 46.8 µM) | 46 | 31 | 1.3 | 32 | – | CCCC[C@H](NC(=O)O[C@H](Cn1cnc2cc(Cl)c(Cl)cc21)C(C)(C)C)C(=O)CNS(=O)(=O)c1ccccn1 |
| 0.072 | 20 | 8.7 | 0.21 | 9.1 | 110 (≈ 196 µM) | 320 | – | 1.6 | 42 | – | CCCC[C@H](NC(=O)O[C@H](Cn1ccc(-c2ccc(C(F)(F)F)cc2)n1)C(C)(C)C)C(=O)C(=O)Nc1ccn[nH]1 |
| 1.4 | 71 | 38 | 7.9 | – | – | – | – | – | – | – | C[C@H](NC(=O)O[C@H](Cn1cnc2cc(Cl)c(Cl)cc21)C(C)(C)C)C(=O)CNS(=O)(=O)c1ccccn1 |
| 3.8 | 13 | 38 | 11 | 6.8 | 60 (≈ 108 µM) | 120 | 16 | 1.7 | 100 | – | CCCC[C@H](NC(=O)O[C@H](Cn1ccc(-c2ccncc2)n1)C(C)(C)C)C(=O)CNS(=O)(=O)c1ccccn1 |

More lines, now with the values behind:

| SMILES | IC50 [1] [nM] | IC50 [2] [nM] | IC50 [3] [nM] | IC50 [4] [nM] | Papp [5] [×10⁻⁶ cm/s] | solubility [6] [µg/mL] | half-life [7] [min] | clearance [8] [mL/min/kg] | Vd [9] [L/kg] | bioavailability [10] [%] | Ratio IC50 [11] |
| --- | --- | --- | --- | --- | --- | --- | --- | --- | --- | --- | --- |
| CCCC[C@H](NC(=O)O[C@H](Cn1ccc(-c2ccc(C(F)(F)F)cc2)n1)C(C)(C)C)C(=O)CNS(=O)(=O)c1ccccn1 | 4 | 170 | > 250 | 35 | 16 | 41 (≈ 65.7 µM) | 120 | 26 | 1.8 | 21 | – |
| CCCC[C@H](NC(=O)O[C@H](Cn1cnc(-c2ccc(C(F)(F)F)cc2)c1)C(C)(C)C)C(=O)CNS(=O)(=O)c1ccccn1 | 6.4 | 130 | 1100 | 10 | 19 | 40 (≈ 64.1 µM) | 67 | 47 | 1.6 | 22 | > 100 |
| CC(C)C[C@H](NC(=O)c1cc2ccccc2o1)C(=O)N[C@@H](C)C(=O)CNS(=O)(=O)c1ccccn1 | 7.5 | 59 | – | 20 | – | – | 33 | – | – | – | – |
| C[C@H](NC(=O)O[C@H](Cn1ccc(-c2ccc(C(F)(F)F)cc2)n1)C(C)(C)C)C(=O)CNS(=O)(=O)c1ccccn1 | 18 | 310 | > 250 | 64 | 30 | 97 (≈ 167 µM) | 32 | 82 | 1.8 | 27 | – |
| CCCC[C@H](NC(=O)O[C@H](Cn1ccc(-c2ccc(C(F)(F)F)cc2)n1)C(C)(C)C)C(=O)CNC(=O)N1CCOCC1 | > 250 | – | – | – | – | – | – | – | – | – | – |
| CCCC[C@H](NC(=O)O[C@H](Cn1ccc(C(F)(F)F)n1)C(C)(C)C)C(=O)CNS(=O)(=O)c1ccccn1 | 32 | – | – | – | 34 | – | 24 | 21 | 0.46 | 20 | – |
| CCCC[C@H](NC(=O)O[C@H](Cn1ccc(-c2ccc(C(F)(F)F)cc2)n1)C(C)(C)C)C(=O)CNc1cccc(F)n1 | 2.1 | 68 | > 250 | 19 | – | – | – | – | – | – | > 100 |
| CCCC[C@H](NC(=O)O[C@H](Cn1cc(-c2ccc(C(F)(F)F)cc2)cn1)C(C)(C)C)C(=O)CNS(=O)(=O)c1ccccn1 | 7.6 | 72 | 7100 | 26 | – | – | – | – | – | – | > 100 |
| C[C@H](NC(=O)O[C@H](Cn1ccc(C(F)(F)F)n1)C(C)(C)C)C(=O)CNS(=O)(=O)c1ccccn1 | 300 | – | – | – | – | – | – | – | – | – | – |
